# Results: patent US20190282673A1, “STAPHTAME ACTIVITY ON BIOFILMS” (priority 2016, published 2019)
# Where “and” joins values, the source holds several entries; their conditions need not be identical. Identical values can stand only once. Like-named read-outs stand apart in the source and are kept apart here.
# Key:
# S. aureus = assay: MIC and checkerboard synergy (broth microdilution) on planktonic cells; type: cell-based, Staphylococcus aureus; details: for MIC: Staphylococcus aureus
# Experimental: MIC was determined using a modified Clinical and Laboratory Standards Institute (CLSI) broth microdilution procedure described earlier in Vipra, et al. (2012) “Antistaphylococcal activity of bacteriophage derived chimeric protein P128” BMC Microbiol. 12:41-50; and Clinical and Laboratory Standards Institute (2012) “Methods for Dilution Antimicrobial Susceptibility Tests for Bacteria That Grow Aerobically; Approved Standard” CLSI document M07-A9.9 ed. Wayne, Pa. USA. In order to determine effects of combinations of P128 with antibiotics, combinations of various dilutions of P128 and a second drug were tested for growth inhibition using a microdilution checkerboard technique. See Lu, et al. (2013) “In vitro activity of sodium new houttuyfonate alone and in combination with oxacillin or netilmicin against methicillin-resistant Staphylococcus aureus” PLoS One 8:e68053. Briefly, S. aureus culture at a final cell number of 5×10^5 CFU/mL was added to wells of 96-well microtiter plates (precoated with 0.5% BSA), containing two-fold dilutions of P128 and the second drug in cation adjusted Mueller Hinton Broth (CAMHB). The plates were incubated at 37° C. for 24 h and the individual MICs and the combination MICs were read. The fractional inhibitory concentration index (FICI) was determined using the following equation: FICI=(MIC of drug A in the combination/MIC of drug A alone)+(MIC of drug B in the combination/MIC of drug B alone). The combination was considered to be synergistic when the FICI was ≤0.5; additive when FICI was 0.5-1.0; indifferent when FICI was 1-4 and antagonistic when FICI≥4. The experiments were performed in triplicate and repeated twice.
# In order to find out whether P128 can act in a synergistic manner with commonly used antibiotics, MIC based growth inhibition assays were performed. MIC based synergy was studied by checkerboard method by determining the FIC index using the method of Lu, et at (2013) “In vitro activity of sodium new houttuyfonate alone and in combination with oxacillin or netilmicin against methicillin-resistant Staphylococcus aureus” PLoS One 8:e68053. […] Similarly.
# Bacterial cultures at a final cell number of 5×10^5 CFU/mL was added to wells of 96-well microtiter plates (precoated with 0.5% BSA), containing two-fold dilutions of P128 and the second drug in cation adjusted Mueller Hinton Broth (CAMHB). The plates were incubated at 37° C. for 24 h and the individual MICs and the combination MICs were read. The fractional inhibitory concentration index (FICI) was determined using the following equation: FICI=(MIC of drug A in the combination/MIC of drug A alone)+(MIC of drug B in the combination/MIC of drug B alone). The combination was considered to be synergistic when the FICI was ≤0.5; additive when FICI was 0.5-1.0; indifferent when FICI was 1-4 and antagonistic when FICI≥4.
# [1] = tested on: S. lugdunensis B9510 biofilms; assay: MBIC and checkerboard synergy on preformed biofilm (MTT assay); type: cell-based; details: S. lugdunensis B9510 72 h preformed biofilm, 6 hr treatment
# Experimental: (§1) […] LB supplemented with 50 μg/mL Ca^++ was used for daptomycin treatment wells. The contents of the well was aspirated out and discarded. The biofilm adhered to the wells was quantified by MTT assay as described above. In each experiment, in addition to the combination MBIC, the MBIC of each drug was also determined individually. The fractional MBIC concentrations were determined by MTT dye method as described above. The FICI and synergy was calculated.
# [2] = tested on: S. haemolyticus B9511 biofilms; assay: as above; type: cell-based; details: S. haemolyticus B9511 72 h preformed biofilm, 6 hr treatment
# Experimental: as §1
# S. aureus MW2 biofilms = assay: Biofilm eradication/biomass removal, crystal violet staining; type: cell-based, Staphylococcus aureus; details: for Activity on preformed biofilm, crystal violet: 500 μg/mL for 24 h, MSSA and MRSA strains
# Experimental: Dis. 209:1469-78 was followed. Briefly, S. aureus MW2 strain grown on blood agar plates was inoculated into TSB with 2% glucose and the culture was grown overnight. The culture was diluted 1:50 in TSB to achieve an […] of the diluted culture was added to 1.8 mL of TSB media aliquoted into each well of a 24 well plate (˜5×10^5 CFU). The plates were kept at 37° C. under static conditions for 18 h, the contents were aspirated, the wells were washed twice with 2.0 mLmL of 1×PBS, and 1 mLmL of media+1 mLmL of the drug was added to each well and incubated at 37° C. for 0, 2, 4 and 24 h. The contents were aspirated out at the stipulated time points and the wells were washed with 2 mL of 1×PBS. The wells were allowed to dry at 37° C. for 15 min and stained with 1 mLmL of 1% CV for 5 min. The wells were washed with 1 mLmL of 1×PBS, air dried and observed for intensity of blue color.
# 0.1% CV was used for staining biofilms. Post staining and washing steps, 1 mL 30% acetic acid is added to each well, incubated in RT for 5-10 min, contents in the well are mixed thoroughly and OD was read at 570 nm.
# S. aureus biofilm = assay: Bactericidal activity on biofilm (CFU reduction); type: cell-based, Staphylococcus aureus; details: for Reduction in CFU counts: S. aureus MW2 biofilm on catheters, P128 8 μg/mL, daptomycin 10 μg/mL, vancomycin 15 μg/mL
# Experimental: In order to determine whether P128 could also act as a bactericidal agent in biofilms, the CFU reduction were monitored in S. aureus ATCC 29213 72 h preformed biofilms treated with various concentrations of P128 for 6 h. For CFU enumeration in catheter biofilm, the catheters were removed from the tubes, rinsed twice in PBS and placed in eppendorf tubes containing 1 mL PBS. To release the adhered biofilm into PBS, the catheters were scraped using inoculation loop. The samples were vortexed thoroughly and plated on LB agar plates.
molecule,measurement,setting,value
"CN[C@H](CC(C)C)C(=O)N[C@H]1C(=O)N[C@@H](CC(N)=O)C(=O)N[C@H]2C(=O)N[C@H]3C(=O)N[C@H](C(=O)N[C@H](C(=O)O)c4cc(O)cc(O)c4-c4cc3ccc4O)[C@H](O)c3ccc(c(Cl)c3)Oc3cc2cc(c3O[C@@H]2O[C@H](CO)[C@@H](O)[C@H](O)[C@H]2O[C@H]2C[C@](C)(N)[C@H](O)[C@H](C)O2)Oc2ccc(cc2Cl)[C@H]1O [Vancomycin, vancomycin]",MIC,"S. aureus; 24 h, read-out: MIC (drug alone), S. aureus B9241 (gentamycin and ciprofloxacin resistant)",1 mg/L
same,MIC,"S. aureus; ATCC29213, read-out: MIC over the strains, ATCC29213, BK1 and B9241",1 mg/L
same,MIC,"S. aureus; ATCC 29213 / MSSA, 24 h, read-out: MIC (drug alone), S. aureus ATCC 29213 (MSSA)",1 mg/L
same,MIC,"S. aureus; MRSA, 24 h, read-out: MIC (drug alone), S. aureus BK1 (MRSA, ciprofloxacin resistant)",1 mg/L
same,MIC,"S. aureus; VRSA, 24 h, read-out: MIC (drug alone), VRSA strain VRS 1",32 mg/L
same,MIC,"S. aureus; VRSA, 24 h, read-out: MIC (drug alone), VRSA strain VRS 2",32 mg/L
same,MIC,"S. aureus; VRSA, 24 h, read-out: MIC (drug alone), VRSA strain VRS 3a",32 mg/L
same,MIC,"S. aureus; VRSA, 24 h, read-out: MIC (drug alone), VRSA strain VRS 3b",32 mg/L
same,MIC,"S. aureus; VRSA, 24 h, read-out: MIC (drug alone), VRSA strain VRS 4",32 mg/L
same,MIC,"S. aureus; VRSA, 24 h, read-out: MIC (drug alone), VRSA strain VRS 10",16 mg/L
same,MBIC (drug alone),[1],250 µg/mL
same,MBIC (drug alone),[2],>250 µg/mL
same,"Activity on preformed biofilm, crystal violet",S. aureus MW2 biofilms,insignificant activity
same,Reduction in CFU counts,S. aureus biofilm,no significant effect
"CCCCCCCCCC(=O)N[C@@H](Cc1c[nH]c2ccccc12)C(=O)N[C@H](CC(N)=O)C(=O)N[C@@H](CC(=O)O)C(=O)N[C@@H]1C(=O)NCC(=O)N[C@@H](CCCN)C(=O)N[C@@H](CC(=O)O)C(=O)N[C@H](C)C(=O)N[C@@H](CC(=O)O)C(=O)NCC(=O)N[C@H](CO)C(=O)N[C@@H]([C@H](C)CC(=O)O)C(=O)N[C@@H](CC(=O)c2ccccc2N)C(=O)O[C@@H]1C [Daptomycin, daptomycin]",MBIC (drug alone),[1],15.6 µg/mL
same,MBIC (drug alone),[2],>250 µg/mL
same,"Activity on preformed biofilm, crystal violet",S. aureus MW2 biofilms,insignificant activity
same,Reduction in CFU counts,S. aureus biofilm,1 log
"CC(=O)NC[C@H]1CN(c2ccc(N3CCOCC3)c(F)c2)C(=O)O1 [Linezolid, linezolid]",MIC,"S. aureus; 24 h, LRSA strain B9456, read-out: MIC (drug alone)",> 32 mg/L
same,MIC,"S. aureus; 24 h, LRSA strain B9457, read-out: MIC (drug alone)",8 mg/L
same,MBIC (drug alone),[1],125 µg/mL
same,MBIC (drug alone),[2],>250 µg/mL
same,"Activity on preformed biofilm, crystal violet",S. aureus MW2 biofilms,insignificant activity
"P128: anti-staphylococcal chimeric protein: phage tail associated muralytic enzyme (TAME) cell wall-degrading region plus staphylococcus-specific binding region; SEQ ID NO: 1 (protein, P128 chimera) MSLDSLKKYNGKLPKHDPSFVQPGNRHYKYQCTWYAYNRRGQLGIPVPLWGDAADWIGGAKGAGYGVGRTPKQGACVIWQRGVQGGSPQYGHVAFVEKVLDGGKKIFISEHNYATPNGYGTRTIDMSSAIGKNAQFIYDKKLETPNTGWKTNKYGTLYKSESASFTPNTDIITRTTGPFRSMPQSGVLKAGQTIHYDEVMKQDGHVWVGYTGNSGQRIYLPVRTWNKSTNTLGVLWGTIK",MIC over the strains,"S. aureus; ATCC29213, BK1 and B9241",4 to 8 mg/L
same,MIC (drug alone),S. aureus; LRSA strain B9456,2 mg/L
same,MIC (drug alone),S. aureus; LRSA strain B9457,1 mg/L
same,MIC (drug alone),S. aureus; MRSA strain BK22,0.45 mg/L
same,MIC (drug alone),S. aureus; S. aureus ATCC 29213 (MSSA),4 mg/L
same,MIC (drug alone),S. aureus; S. aureus B9241 (gentamycin and ciprofloxacin resistant),8 mg/L
same,MIC (drug alone),"S. aureus; S. aureus BK1 (MRSA, ciprofloxacin resistant)",4 mg/L
same,MIC (drug alone),S. aureus; S. aureus BK18,2 mg/L and 4 mg/L
same,MIC (drug alone),S. aureus; VRSA strain VRS 1,1.9 mg/L
same,MIC (drug alone),S. aureus; VRSA strain VRS 2,1.9 mg/L
same,MIC (drug alone),S. aureus; VRSA strain VRS 3a,1.9 mg/L
same,MIC (drug alone),S. aureus; VRSA strain VRS 3b,0.97 mg/L
same,MIC (drug alone),S. aureus; VRSA strain VRS 4,1.9 mg/L
same,MIC (drug alone),S. aureus; VRSA strain VRS 10,3.9 mg/L
same,MBIC (drug alone),[1],32 µg/mL and 16 µg/mL
same,MBIC (drug alone),[2],6.25 µg/mL and 12.5 µg/mL
same,Time of treatment to eliminate the biofilms,S. aureus MW2 biofilms; P128 at 1×MIC (8 μg/mL),≤ 2 h
same,OD570 of crystal violet vs cell control,S. aureus MW2 biofilms; even after 24 h,significant drop in OD
same,Cells killed,"S. aureus biofilm; S. aureus ATCC 29213 72 h biofilm, P128 7.8 μg/mL, 6 h",> 90%
same,Cell killing,"S. aureus biofilm; S. aureus ATCC 29213 72 h biofilm, P128 greater than 31 μg/mL, 6 h",99.9%
same,Reduction in CFU counts,S. aureus biofilm,3 log
